Earlier results, collected in patent publication US20090285877A1, “Percutaneous absorption preparation containing palonosetron” (HISAMITSU PHARMACEUTICAL CO., INC.,, priority 2008, published 2009).

Target: T1, 5-HT3 receptor (Homo sapiens, UniProt P46098)
T1 sequence (P46098 24-478): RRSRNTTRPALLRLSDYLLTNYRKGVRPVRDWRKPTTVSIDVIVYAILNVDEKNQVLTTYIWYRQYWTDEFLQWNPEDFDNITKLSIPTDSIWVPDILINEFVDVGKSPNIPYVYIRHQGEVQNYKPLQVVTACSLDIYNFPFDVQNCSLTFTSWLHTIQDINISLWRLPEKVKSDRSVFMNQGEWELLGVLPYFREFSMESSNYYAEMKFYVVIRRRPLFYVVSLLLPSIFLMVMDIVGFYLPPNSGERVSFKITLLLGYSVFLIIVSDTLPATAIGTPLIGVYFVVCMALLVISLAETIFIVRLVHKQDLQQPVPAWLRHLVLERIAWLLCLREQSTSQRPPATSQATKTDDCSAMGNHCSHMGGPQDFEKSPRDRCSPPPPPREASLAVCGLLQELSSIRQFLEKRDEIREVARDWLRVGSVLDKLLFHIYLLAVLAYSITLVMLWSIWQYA

binding affinity for 5-HT3 receptor: high binding affinity
Compound: Cl.O=C1c2cccc3c2[C@H](CCC3)CN1[C@@H]1CN2CCC1CC2 [Palonosetron hydrochloride, (3aS)-2-[(S)-1-azabicyclo[2.2.2]oct-3-yl]-2,3,3a,4,5,6-hexahydro-1-oxo-1H-1Hbenz[de]isoquinoline hydrochloride]
